In ChEMBL document CHEMBL1149270, “Design and synthesis of a potent and selective peptidomimetic inhibitor of caspase-3” (J Med Chem, 2004):

Columns and labels:
Caspase-3 (Homo sapiens) = biological target: T1, Caspase-3 (Homo sapiens) (UniProt P42574); assay: […] caspase 3 activity at 210 nM relative to control; parameters: scale not given: the % may be the effect or the level left
T1 sequence (whole entry): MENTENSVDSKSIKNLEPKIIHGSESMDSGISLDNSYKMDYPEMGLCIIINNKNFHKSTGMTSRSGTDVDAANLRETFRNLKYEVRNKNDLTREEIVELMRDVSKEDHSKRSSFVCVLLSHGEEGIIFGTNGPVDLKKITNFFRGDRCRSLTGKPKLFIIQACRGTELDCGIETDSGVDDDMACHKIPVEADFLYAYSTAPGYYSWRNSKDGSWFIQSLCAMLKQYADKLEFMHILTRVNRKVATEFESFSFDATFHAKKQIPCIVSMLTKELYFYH

Caspase-6 (Homo sapiens) = biological target: T2, Caspase-6 (Homo sapiens) (UniProt P55212); assay: Effect on recombinant caspase 6 activity at 210 nM relative to control
T2 sequence (whole entry): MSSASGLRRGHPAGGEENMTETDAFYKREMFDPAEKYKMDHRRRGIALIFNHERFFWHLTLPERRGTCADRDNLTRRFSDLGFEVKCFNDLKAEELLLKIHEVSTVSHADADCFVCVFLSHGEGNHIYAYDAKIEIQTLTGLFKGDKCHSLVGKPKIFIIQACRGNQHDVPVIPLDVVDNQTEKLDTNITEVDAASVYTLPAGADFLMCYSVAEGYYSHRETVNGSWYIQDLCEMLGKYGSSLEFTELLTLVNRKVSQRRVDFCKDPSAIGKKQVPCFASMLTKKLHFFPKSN

Caspase-4 (Homo sapiens) = biological target: T3, Caspase-4 (Homo sapiens) (UniProt P49662); assay: Effect on recombinant caspase 4 activity at 210 nM relative to control
T3 sequence (whole entry): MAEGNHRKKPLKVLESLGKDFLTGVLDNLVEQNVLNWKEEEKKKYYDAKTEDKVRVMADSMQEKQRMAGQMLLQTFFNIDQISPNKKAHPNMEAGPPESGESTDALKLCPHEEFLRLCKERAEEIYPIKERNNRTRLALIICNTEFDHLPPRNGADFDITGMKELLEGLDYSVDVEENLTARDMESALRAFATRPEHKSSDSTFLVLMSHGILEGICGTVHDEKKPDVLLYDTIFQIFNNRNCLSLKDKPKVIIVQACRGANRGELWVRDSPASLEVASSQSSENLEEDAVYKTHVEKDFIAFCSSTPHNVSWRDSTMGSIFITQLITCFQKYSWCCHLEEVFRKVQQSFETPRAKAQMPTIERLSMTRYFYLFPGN

`CC(=O)N[C@@H](CC(=O)O)C(=O)NC1N=C(c2ccccc2)c2ccccc2N(CC(=O)N[C@H]2CC(=O)OC2O)C1=O` (stereo partly drawn) was tested. Which Activity (Caspase-3 (Homo sapiens)) did it give?
The Activity was 9%.

What about the Activity (Caspase-6 (Homo sapiens)) of the same compound?
Its Activity is 58%.

And the Activity (Caspase-4 (Homo sapiens))?
Its Activity is 95%.
